Measured values from patent publication US20120277177A1, “CRYSTALLINE PHASES OF 5,6-DICHLORO-2-(ISOPROPYLAMINO)-1-BETA-RIBOFURANOSYL-1H-BENZIMIDAZOLE” (priority 2010, published 2012).

Experiment: Solid-state stability on storage in the well-plate under ambient temperature and relative humidity
Assay type: physicochemical
Details: for form change (desolvation / transformation) after storage: storage in the well-plate under ambient temperature and relative humidity for approximately 3 weeks
Source text: The invention relates to the anhydrate crystalline Form VIII, hydrates and solvates both in pure form and in admixture with other anhydrate forms, hydrates or solvates of the compound of formula (I).

Row | form change (transformation) after storage (approximately 4 weeks of storage under ambient conditions) | SMILES | form change (desolvation / transformation) after storage
1 | partially transformed into Form VI | CC(C)Nc1nc2cc(Cl)c(Cl)cc2n1[C@H]1O[C@@H](CO)[C@H](O)[C@@H]1O [t-butylmethyl ether solvate 2, 5,6-dichloro-2-(isopropylamino)-1-(β-L-ribofuranosyl)-1H-benzimidazole] | –
2 | – | CC(C)Nc1nc2cc(Cl)c(Cl)cc2n1[C@H]1O[C@@H](CO)[C@H](O)[C@@H]1O [acetonitrile solvate, 5,6-dichloro-2-(isopropylamino)-1-(β-L-ribofuranosyl)-1H-benzimidazole] | completely desolvated and transformed to the anhydrate Form V
3 | – | CC(C)Nc1nc2cc(Cl)c(Cl)cc2n1[C@H]1O[C@@H](CO)[C@H](O)[C@@H]1O [n-propyl acetate solvate, 5,6-dichloro-2-(isopropylamino)-1-(β-L-ribofuranosyl)-1H-benzimidazole] | partially desolvated and transformed to the anhydrate Form VI
